Data set [1] relates to caecal/large colon digesta. The data set can be described thus: Experiment 2 Part 5: efficacy of tylosin relative to virginiamycin, digesta incubated with glucose. Type of data set: cell-based, horse. Conditions: antibiotic 1.00 μg/ml, 37°, 20 hours, mean.
Data set [2] concerns caecal/large colon digesta. Briefly: Experiment 2 Part 6: therapeutic use, virginiamycin added after the start of fermentation. The following applies: virginiamycin 10 ug/ml added at 4, 8 or 12 h; total 24 h; FIG. 6. Type of data set: cell-based, horse. The protocol: An in vitro experiment was conducted to determine whether by adding the virginiamycin after the start of fermentation of caecal digesta and glucose subsequent lactic acid production could still be prevented.
Samples of caecal/large colon digesta were prepared as described above (Part 5) but with the following treatments (3 replicates/treatment):
(a) Control--incubated for 24 h;
(b) Sampled after 4 h and virginiamycin added before incubating for a total of 24 h;
(c) As for (b) but with sampling etc at 8 h; and
(d) As for (b) but sampling etc after 12 h. Virginiamycin was added to provide 10 ug/ml.

Data set [3] concerns horses given controlled doses of ground wheat. Briefly: Experiment 3: in vivo action of virginiamycin in horses dosed with ground wheat. Further details: species or system horse. The protocol: These animals were pre-dosed with virginiamycin by feeding 2 kg of a mixture containing: chaff 1225 g, sugar 225 g, water 450 g and `Stafac 20` 100 g. This provided approximately 2 g virginiamycin/d. The sugar was first dissolved in water before adding the `Stafac 20` and mixing it into a uniform suspension. This mixture was then added to the chaff and mixed for 20 minutes. When this feed was not eaten on the second day on which it was offered the animals were dosed with 125 g `Stafac 20`/head (2.5 g virginiamycin/head), via a stomach tube. On the third day of the experiment the animals were given a dose of ground wheat. This provided approximately 6 mg virginiamycin/kg liveweight. The wheat was mixed in a slurry with water and given in two equal amounts with an interval of about 2 hours between doses. The animals were examined and sampled at 8 hour intervals over a period of 48 hours as described for Experiment 1 above. Times were taken from the first dose of wheat.
Eight horses were used for this experiment. Four animals received virginiamycin and 4 animals received the same treatment but without virginiamycin. The animals which received virginiamycin were pre-dosed for two days prior to administration of the wheat slurry by feeding 640 g of a mixture containing lucerne chaff 495 g, sugar 16.5 g, cornflour 8.3 g, water 115 g, `Stafac 500` 4.95 g. This provided approximately 2.48 g virginiamycin/d. This was prepared in the following way. An evenly mixed slurry of the sugar, cornflour, water and `Stafac 500` was prepared and this was added to the lucerne chaff before mixing thoroughly in a cement mixer. The control animals received 640 g of lucerne chaff without any additive. The doses of wheat administered on the third day provided 12 grams of ground wheat/kg liveweight. Again this was given in two equal amounts with an interval between doses. The wheat given to the horses on the virginiamycin treatment contained `Stafac 20` (20/kg wheat). This provided approximately 4.8 mg virginiamycin/kg liveweight. The animals were examined and sampled at 8 hour intervals over a period of 48 hours as described above for Experiment 1.

As to virginiamycin, the L-lactate in data set [1] is 9.3 mmol/L. For the same substance, the “time after the start of glucose fermentation at which addition of virginiamycin still prevents the build up of lactic acid” value in data set [2] was “up to 8 h”. For the same substance, the signs of lameness result in data set [3] (5 animals dosed with virginiamycin, ground wheat, 48 hours, 3 of 4 controls Obel grade 2) is on record as “none showed any signs of lameness”. Further, in data set [3] (48 hours after wheat slurry, FIG. 4(b)), the “faecal pH” value is reported as “no significant change”. Moreover, the “death after wheat slurry with virginiamycin” value in data set [3] (Part 1, 2 horses, approx 6 mg virginiamycin/kg liveweight, build up of gas in the caecum) is “one died after 16 hours”. For the same substance, in data set [3] (after wheat slurry), the “parameters associated with acidosis (blood bicarbonate and pH, and faecal pH)” value is “within normal limits”. In addition, the “blood L-lactate versus control” value in data set [3] (at 8 and 16 hours after wheat, FIG. 3) was “significantly higher”. In data set [3] (at 16 hours after wheat, FIG. 3), the “blood D-lactate” value is given as “only a minor increase”. Further, the “blood L-lactate versus control” value in data set [3] (by 40 hours after wheat, FIG. 3) is reported as “higher (p<0.05) in the control animals”. In data set [3] (in vivo), the “blood D-lactate level” value is “maintained blood D-lactate at a low level”, the “development of laminitis following excessive carbohydrate intake” value was “protected horses against the development of laminitis”, the “gas produced during the initial rapid fermentation of the carbohydrate” value is recorded as “more gas was produced” and the “heart rate versus control horses” value is “higher than that of the control horses”. For the same substance, the “ill effects of the dose, second animal” value in data set [3] (in vivo) is given as “no ill effects”. Besides, the “reduction in lameness versus control” value in data set [3] (virginiamycin prior to and in conjunction with the wheat slurry) is given as “significant (p<0.05) reduction”.
